The values below come from ChEMBL document CHEMBL6120979, “Cell penetrable peptide nucleic acids targeting PDZK1IP1 with anti-inflammatory potential in human keratinocytes” (Bioorg Med Chem Lett, 2025).

Assay [1] concerns RNA. The assay is described as follows: Binding affinity to complementary RNA (unknown origin) in sodium phosphate buffer assessed as melting temperature of PNA-RNA duplex. The class given is nucleic-acid assay.
The test system of assay [2] is Keratinocyte. The assay is described as follows: Inhibition of PDZK1IP1 mRNA expression in human keratinocytes incubated for 24 hrs by RT-qPCR analysis. The class given is functional, cell-based. In general terms: In qPCR the cycle at which signal appears reflects the starting amount.
Assay [3] relates to RNA. The assay is described as follows: Binding affinity to complementary RNA (unknown origin) with mismatch bases in sodium phosphate buffer. The class given is nucleic-acid assay.
In assay [4] the test system is Keratinocyte. The experiment in a line: Inhibition of PDZK1IP1 mRNA expression in human keratinocytes at 1 uM incubated for 24 hrs by RT-qPCR analysis. The class given is functional, cell-based.
Assay [5] deals with Keratinocyte. The experiment in a line: Inhibition of PDZK1IP1 mRNA expression in human keratinocytes at 0.01 to 1 uM incubated for 24 hrs by RT-qPCR analysis. The class given is functional, cell-based. The following applies: dose 0.01-1 µM.
The subject of assay [6] is Keratinocyte. The assay is described as follows: Antiinflammatory activity in human keratinocytes assessed as downregulation of PTGS2 gene expression preincubated with compound for 24 hrs followed by IFN-gamma addition and measured after 24 hrs by RT-qPCR analysis. Format: functional, cell-based. The following applies: dose 0.01-1 µM, time 48.0 hrs.
Assay [7] has as its system Keratinocyte. The assay is described as follows: Antiinflammatory activity in human keratinocytes assessed as downregulation of IL6 gene expression preincubated with compound for 24 hrs followed by IFN-gamma addition and measured after 24 hrs by RT-qPCR analysis. The class given is functional, cell-based. The following applies: dose 0.01-1 µM, time 48.0 hrs.
Assay [8] concerns Keratinocyte. The assay is described as follows: Antiinflammatory activity in human keratinocytes assessed as downregulation of PDZK1IP1 gene expression preincubated with compound for 24 hrs followed by IFN-gamma addition and measured after 24 hrs by RT-qPCR analysis. Format: functional, cell-based. Conditions: dose 0.01-1 µM, time 48.0 hrs.
Assay [9] deals with Keratinocyte. The assay is described as follows: Antiinflammatory activity in human keratinocytes assessed as downregulation of PDZK1IP1 gene expression at 1 uM preincubated with compound for 24 hrs followed by IFN-gamma addition and measured after 24 hrs by RT-qPCR analysis. The class given is functional, cell-based. Conditions: time 48.0 hrs.
Assay [10] concerns Keratinocyte. The experiment in a line: Antiinflammatory activity in human keratinocytes assessed as downregulation of IL6 gene expression at 1 uM preincubated with compound for 24 hrs followed by IFN-gamma addition and measured after 24 hrs by RT-qPCR analysis. Format: functional, cell-based. Conditions: time 48.0 hrs.
Assay [11] has as its system Keratinocyte. The assay is described as follows: Antiinflammatory activity in human keratinocytes assessed as downregulation of PTGS2 gene expression at 1 uM preincubated with compound for 24 hrs followed by IFN-gamma addition and measured after 24 hrs by RT-qPCR analysis. Format: functional, cell-based. The following applies: time 48.0 hrs.

Activity calls are given as the source filed them. The calls are words filed in the database; no cut-off is given here. Where only a bound is given, the exact number is not on record here.

For the compound `Cc1cn(CC(=O)N(CCN)CC(=O)NCCN(CC(=O)NCCN(CC(=O)NCCN(CC(=O)NCCN(CC(=O)NCCN(CC(=O)NCCN(CC(=O)NCCN(CC(=O)NCCN(CC(=O)NCCN(CC(=O)NCCN(CC(=O)NCCN(CC(=O)NCCN(CC(=O)NCCN(CC(=O)NCCN(CC(=O)NCCN(CC(=O)NCCN(CC(=O)NCCN(CC(=O)NCCN(CC(=O)NCCN(CC(=O)O)C(=O)Cn2cnc3c(=O)[nH]c(NCCCCCCN)nc32)C(=O)Cn2ccc3c(=O)[nH]c(N)nc32)C(=O)Cn2cnc3c(=O)[nH]c(N)nc32)C(=O)Cn2cnc3c(=O)[nH]c(NCCCCCCN)nc32)C(=O)Cn2cc(C)c(=O)[nH]c2=O)C(=O)Cn2ccc(N)nc2=O)C(=O)Cn2ccc(N)nc2=O)C(=O)Cn2ccc(N)nc2=O)C(=O)Cn2cc(C)c(=O)[nH]c2=O)C(=O)Cn2cc3cc(COCCN)[nH]c3nc2=O)C(=O)Cn2cnc3c(=O)[nH]c(N)nc32)C(=O)Cn2cnc3c(=O)[nH]c(N)nc32)C(=O)Cn2cnc3c(N)nc(NCCCCCN)nc32)C(=O)Cn2ccc(N)nc2=O)C(=O)Cn2cnc3c(=O)[nH]c(N)nc32)C(=O)Cn2cc(C)c(=O)[nH]c2=O)C(=O)Cn2cnc3c(=O)[nH]c(N)nc32)C(=O)Cn2cc(C)c(=O)[nH]c2=O)C(=O)Cn2cnc3c(=O)[nH]c(N)nc32)c(=O)[nH]c1=O`, in the assay with RNA [1], the Tm is over 90 °C. Further, the inhibition entry with Keratinocyte [2] is “Dose-dependent-effect”. For the same compound, the outcome with RNA [3] was inactive.

In the case of `Cc1cn(CC(=O)N(CCNC(=O)CN(CCNC(=O)CN(CCNC(=O)CN(CCNC(=O)CN(CCNC(=O)CN(CCNC(=O)CN(CCNC(=O)CN(CCNC(=O)CN(CCNC(=O)CN(CCNC(=O)CN(CCNC(=O)CN(CCNC(=O)CN(CCNC(=O)CN(CCN)C(=O)Cn2cc(C)c(=O)[nH]c2=O)C(=O)Cn2cnc3c(=O)[nH]c(NCCCCCCN)nc32)C(=O)Cn2cc(C)c(=O)[nH]c2=O)C(=O)Cn2cnc3c(=O)[nH]c(NCCCCCCN)nc32)C(=O)Cn2ccc(N)nc2=O)C(=O)Cn2cnc3c(N)nc(NCCCCCN)nc32)C(=O)Cn2cnc3c(=O)[nH]c(N)nc32)C(=O)Cn2cnc3c(=O)[nH]c(NCCCCCCN)nc32)C(=O)Cn2ccc(N)nc2=O)C(=O)Cn2cc(C)c(=O)[nH]c2=O)C(=O)Cn2ccc(N)nc2=O)C(=O)Cn2cc3cc(COCCN)[nH]c3nc2=O)C(=O)Cn2ccc(N)nc2=O)CC(=O)O)c(=O)[nH]c1=O`, the Tm in the assay with RNA [1] was determined as 75 °C. The result in the assay with RNA [3] was inactive. Besides, the inhibition result in the assay with Keratinocyte [4] is “Active”. The inhibition entry with Keratinocyte [5] was “Mild_effect; Mild Dose Dependent Effect Observed”.

With `Cc1cn(CC(=O)N(CCN)CC(=O)NCCN(CC(=O)NCCN(CC(=O)NCCN(CC(=O)NCCN(CC(=O)NCCN(CC(=O)NCCN(CC(=O)NCCN(CC(=O)NCCN(CC(=O)NCCN(CC(=O)NCCN(CC(=O)NCCN(CC(=O)NCCN(CC(=O)NCCN(CC(=O)O)C(=O)Cn2cnc3c(=O)[nH]c(N)nc32)C(=O)Cn2cnc3c(=O)[nH]c(NCCCCCCN)nc32)C(=O)Cn2cc(C)c(=O)[nH]c2=O)C(=O)Cn2ccc(N)nc2=O)C(=O)Cn2ccc(N)nc2=O)C(=O)Cn2cc3cc(COCCN)[nH]c3nc2=O)C(=O)Cn2cc(C)c(=O)[nH]c2=O)C(=O)Cn2ccc(N)nc2=O)C(=O)Cn2cnc3c(=O)[nH]c(NCCCCCCN)nc32)C(=O)Cn2cnc3c(=O)[nH]c(N)nc32)C(=O)Cn2cnc3c(N)nc(NCCCCCN)nc32)C(=O)Cn2ccc(N)nc2=O)C(=O)Cn2cnc3c(=O)[nH]c(NCCCCCCN)nc32)c(=O)[nH]c1=O`, the Activity result in the assay with Keratinocyte [6], in the assay on Keratinocyte [7] and with Keratinocyte [8] was “Dose-dependent-effect” throughout. The Tm in the assay with RNA [1] turned out to be 80 °C. In addition, the inhibition entry with Keratinocyte [2] is “Dose-dependent-effect”. For the same compound, the result with RNA [3] was inactive. For the same compound, in the assay on Keratinocyte [4], the inhibition result is “Active”.

Consider `Cc1cn(CC(=O)N(CCNC(=O)CN(CCNC(=O)CN(CCNC(=O)CN(CCNC(=O)CN(CCNC(=O)CN(CCNC(=O)CN(CCNC(=O)CN(CCNC(=O)CN(CCNC(=O)CN(CCNC(=O)CN(CCNC(=O)CN(CCNC(=O)CN(CCN)C(=O)Cn2cnc3c(N)nc(NCCCCCN)nc32)C(=O)Cn2ccc(N)nc2=O)C(=O)Cn2cc(C)c(=O)[nH]c2=O)C(=O)Cn2ccc(N)nc2=O)C(=O)Cn2cnc3c(N)nc(NCCCCCN)nc32)C(=O)Cn2ccc(N)nc2=O)C(=O)Cn2cnc3c(=O)[nH]c(NCCCCCCN)nc32)C(=O)Cn2cnc3c(=O)[nH]c(N)nc32)C(=O)Cn2cc3cc(COCCN)[nH]c3nc2=O)C(=O)Cn2cc(C)c(=O)[nH]c2=O)C(=O)Cn2ccc(N)nc2=O)C(=O)Cn2cc3cc(COCCN)[nH]c3nc2=O)CC(=O)NCCN(CC(=O)O)C(=O)Cn2ccc(N)nc2=O)c(=O)[nH]c1=O`, for which the Tm in the assay on RNA [1] amounted to 74.1 °C. Further, in the assay with RNA [3], the outcome was inactive. Further, in the assay on Keratinocyte [4], the inhibition result was “Active”. In addition, the inhibition entry in the assay on Keratinocyte [5] was “Mild_effect; Mild Dose Dependent Effect Observed”.

As for `Cc1cn(CC(=O)N(CCN)CC(=O)NCCN(CC(=O)NCCN(CC(=O)NCCN(CC(=O)NCCN(CC(=O)NCCN(CC(=O)NCCN(CC(=O)NCCN(CC(=O)NCCN(CC(=O)NCCN(CC(=O)NCCN(CC(=O)NCCN(CC(=O)NCCN(CC(=O)NCCN(CC(=O)NCCN(CC(=O)NCCN(CC(=O)NCCN(CC(=O)NCCN(CC(=O)NCCN(CC(=O)NCCN(CC(N)=O)C(=O)Cn2cnc3c(=O)[nH]c(N)nc32)C(=O)Cn2ccc(N)nc2=O)C(=O)Cn2cnc3c(N)nc(NCCCCCN)nc32)C(=O)Cn2cc(C)c(=O)[nH]c2=O)C(=O)Cn2ccc(N)nc2=O)C(=O)Cn2cnc3c(N)ncnc32)C(=O)Cn2cnc3c(=O)[nH]c(N)nc32)C(=O)Cn2cnc3c(N)ncnc32)C(=O)Cn2ccc(N)nc2=O)C(=O)Cn2cnc3c(N)nc(N)nc32)C(=O)Cn2cnc3c(N)nc(NCCCCCN)nc32)C(=O)Cn2ccc(N)nc2=O)C(=O)Cn2cc(C)c(=O)[nH]c2=O)C(=O)Cn2cc(C)c(=O)[nH]c2=O)C(=O)Cn2ccc(N)nc2=O)C(=O)Cn2cnc3c(N)nc(NCCCCCN)nc32)C(=O)Cn2ccc(N)nc2=O)C(=O)Cn2cc(C)c(=O)[nH]c2=O)C(=O)Cn2cc3cc(COCCN)[nH]c3nc2=O)c(=O)[nH]c1=O`, the inhibition result in the assay with Keratinocyte [4] is “inactive”. Also, the outcome in the assay with Keratinocyte [9], in the assay on Keratinocyte [10] and in the assay on Keratinocyte [11] was inactive.

`Cc1cn(CC(=O)N(CCNC(=O)CN(CCNC(=O)CN(CCNC(=O)CN(CCNC(=O)CN(CCNC(=O)CN(CCNC(=O)CN(CCN)C(=O)Cn2cnc3c(=O)[nH]c(N)nc32)C(=O)Cn2cnc3c(=O)[nH]c(NCCCCCCN)nc32)C(=O)Cn2ccc(N)nc2=O)C(=O)Cn2cc(C)c(=O)[nH]c2=O)C(=O)Cn2cc3cc(COCCN)[nH]c3nc2=O)C(=O)Cn2ccc(N)nc2=O)CC(=O)NCCN(CC(=O)NCCN(CC(=O)NCCN(CC(=O)NCCN(CC(=O)NCCN(CC(=O)NCCN(CC(=O)NCCN(CC(=O)O)C(=O)Cn2cnc3c(N)nc(NCCCCCN)nc32)C(=O)Cn2ccc(N)nc2=O)C(=O)Cn2cnc3c(=O)[nH]c(N)nc32)C(=O)Cn2cnc3c(=O)[nH]c(NCCCCCCN)nc32)C(=O)Cn2cc(C)c(=O)[nH]c2=O)C(=O)Cn2cc3cc(COCCN)[nH]c3nc2=O)C(=O)Cn2ccc(N)nc2=O)c(=O)[nH]c1=O`: the midpoint of thermal melting (Tm) with RNA [1] was 84 °C. Also, in the assay with RNA [3], the outcome was inactive. The inhibition result with Keratinocyte [4] was “Active”. In addition, the inhibition result with Keratinocyte [5] is “Mild_effect; Mild Dose Dependent Effect Observed”.

As for `Cc1cn(CC(=O)N(CCNC(=O)CN(CCNC(=O)CN(CCNC(=O)CN(CCNC(=O)CN(CCNC(=O)CN(CCNC(=O)CN(CCNC(=O)CN(CCNC(=O)CN(CCN)C(=O)Cn2cnc3c(N)nc(NCCCCCN)nc32)C(=O)Cn2ccc(N)nc2=O)C(=O)Cn2cnc3c(=O)[nH]c(N)nc32)C(=O)Cn2cnc3c(=O)[nH]c(N)nc32)C(=O)Cn2ccc(N)nc2=O)C(=O)Cn2cc(C)c(=O)[nH]c2=O)C(=O)Cn2cc3cc(COCCN)[nH]c3nc2=O)C(=O)Cn2ccc(N)nc2=O)CC(=O)NCCN(CC(=O)NCCN(CC(=O)NCCN(CC(=O)NCCN(CC(=O)NCCN(CC(=O)NCCN(CC(=O)NCCN(CC(=O)NCCN(CC(=O)NCCN(CC(=O)NCCN(CC(=O)NCCN(CC(=O)O)C(=O)Cn2cnc3c(=O)[nH]c(N)nc32)C(=O)Cn2cnc3c(N)nc(NCCCCCN)nc32)C(=O)Cn2ccc(N)nc2=O)C(=O)Cn2ccc(N)nc2=O)C(=O)Cn2cnc3c(N)nc(NCCCCCN)nc32)C(=O)Cn2ccc(N)nc2=O)C(=O)Cn2cnc3c(=O)[nH]c(N)nc32)C(=O)Cn2cnc3c(=O)[nH]c(NCCCCCCN)nc32)C(=O)Cn2cc(C)c(=O)[nH]c2=O)C(=O)Cn2ccc(N)nc2=O)C(=O)Cn2ccc(N)nc2=O)c(=O)[nH]c1=O`, the Tm with RNA [1] was over 90 °C. Further, the inhibition entry in the assay with Keratinocyte [2] is “Dose-dependent-effect”. The outcome in the assay on RNA [3] was inactive.

A word on the Tm: it is the temperature at which the thermal transition is half complete.
